Laboratory results from a melting point compilation (Tetko et al.; mined from patent text by program, amines drawn as free bases though some values may be those of a salt).

For `CCC(CC)(COc1nn2nc(C)nc2cc1C)CS(N)(=O)=O`, the melting point was 221 to 222 °C.
Work on `CCC(C(=O)OC)c1cccc(C(=O)c2cc3cc(C(=O)OC)sc3s2)c1` (stereo not drawn) yielded a melting point of 143 °C.
`Cc1ccc(N2CCN(c3ccc(C(C)(C)O)nc3-c3ccc(C(C)C)cc3)CC2)cc1` showed a melting point of 130 to 133 °C.
Molecule `CCOC(=O)c1cnn2c(O)cc(-c3ccc(Cl)cc3)nc12` has a melting point of 190 to 192 °C.
`CC(C)S(=O)(=O)NC(=O)Nc1ccc(Cl)c(Cl)c1` gave a melting point of 151 to 154 °C.
Molecule `CC(C(=O)O)c1ccc2oc(-c3cccnc3)nc2c1` (stereo not drawn) has a melting point of 197 to 200 °C.
In the case of `OCc1nc2ccc(Cl)nc2[nH]1`, the melting point is reported as 224 to 226 °C.
Work on `CCCc1c(OCCCSc2ccc(CC(=O)O)c(Cl)c2Cl)ccc(C(C)=O)c1O` yielded a melting point of 119 to 122 °C.
With `Cc1ccc(-n2nc(C(F)F)cc2-c2ccc(S(C)(=O)=O)cc2)cc1Cl` the melting point was 137 to 139 °C.
With `Clc1ccc(-c2nc3cccnc3[nH]2)cc1` the melting point was 305 to 308 °C.
Work on `O=C(Nc1ccc(Br)cc1)Oc1ccc2c(c1)CCCN2` yielded a melting point of 198 °C.
`O=C(NCc1ccccc1)C1c2ccccc2-c2ccccc21` showed a melting point of 195 to 200 °C.
For `COC(=O)NCC1Cc2cc(Cl)cc(C3CCCCC3)c2O1` (stereo not drawn), the melting point was 100 to 103 °C.
In the case of `C=CCc1c(O)cc(C)c2ccc(=O)oc12`, the melting point is reported as 177 °C.
Work on `O=C(Nc1cc2c3c(c1)CCCC3CCC2)c1ccc(C(=O)O)nc1` yielded a melting point of 239 to 240 °C.
With `Cc1cccc(-c2[nH]c(C(C)C)nc2-c2cccc(-c3cccc(S(N)(=O)=O)c3)c2)n1` the melting point was 123 to 126 °C.
`CCOC(=O)C=Cc1cc(OC)c(OCc2ccccc2)c(OC)c1` showed a melting point of 68 to 69 °C.
`Cc1ccc(C(=O)c2cccc3c2CCC3(C)C(=O)O)cc1` (stereo not drawn) gave a melting point of 99 to 101 °C.
Work on `O=C(CCc1ccc(Cl)cc1Cl)NC1N=C(C2CC2)c2ccccc2N(CC(F)(F)F)C1=O` (single isomer, unassigned; (+)) yielded a melting point of 64 to 66 °C.
In the case of `CN(C)CC=C(c1ccc(-c2ccccc2)cc1)c1ccc(-c2ccccc2)cc1`, the melting point is reported as 94 to 95 °C.
For `CCCCNc1nc(C)c(C(=O)c2ccc(Cl)c([N+](=O)[O-])c2)s1`, the melting point was 125 to 128 °C.
Molecule `N=C(NCc1ccccn1)NN=Cc1c(Cl)cccc1Cl` has a melting point of 125 to 140 °C.
Molecule `CCCc1cc(Cl)nc(-c2cccc(Oc3ccccc3Cl)n2)n1` has a melting point of 96.5 °C.
With `CCc1ccnc(C(=O)c2[nH]c3ccc(Cl)cc3c2CC(=O)O)c1F` the melting point was 208 °C.
`COC(=O)CCN1CCC(=C2c3sccc3CCn3ccnc32)CC1` showed a melting point of 108 °C.
Work on `Nc1ncc2ncn(CCC(CO)CO)c2n1` yielded a melting point of 154 °C.
With `N#Cc1ccc(-c2oncc2CCCO)cc1` the melting point was 82 to 83 °C.
In the case of `O=c1c2ccc(Cl)cc2[nH]c2c(O)nn(Cc3ccco3)c(=O)c12`, the melting point is reported as > 265 °C.
In the case of `CSCCC(NC(=O)Nc1cccc(C)c1)C(=O)O` (racemic), the melting point is reported as 143 °C.
`O=C1CCC2(CCCc3ccccc32)CC1` showed a melting point of 109 to 111 °C.
With `C=CCNC(=O)N1CCC1c1ccccc1F` (stereo not drawn) the melting point was 119 to 120 °C.
With `O=C1CCC(N2Cc3c(OCc4ccc(S(=O)(=O)N5CCOCC5)cc4)cccc3C2=O)C(=O)N1` (stereo not drawn) the melting point was 308 to 310 °C.
For `COC(=O)CCc1ncc(O)c(C(=O)OC)c1C(=O)OC`, the melting point was 66 to 67 °C.
Molecule `COc1ccc(C2CC(n3cncn3)c3ccccc3N2)cc1` (stereo not drawn) has a melting point of 170 to 172 °C.
For `O=C(O)c1ccc(CN2C(=O)C3(COc4cc5c(cc43)OCCO5)c3ccccc32)cc1` (stereo not drawn), the melting point was 234 to 237 °C.
For `O=[N+]([O-])c1ccc(Oc2nn(Cc3ccccc3F)c3ncccc23)nc1`, the melting point was 111 to 113 °C.
For `CCS(=O)(=O)N[C@@H]1CCCC[C@H]1OCC(=O)O` (relative stereo), the melting point was 120 to 122 °C.
`CN(C)c1ccc2c(c1)NC(=O)CC2` showed a melting point of 154 to 156 °C.
For `O=C(CCCCC(=O)c1ccc(F)cc1)c1ccc(F)cc1`, the melting point was 165 to 167 °C.
In the case of `OC1CSC(Oc2ccccc2-c2nc3ccccc3s2)C(O)C1O` (stereo not drawn), the melting point is reported as 196 °C.
`Cc1c(N)c2c(c3c1C(c1ccc(C(C)C)cc1)CO3)CCC2` (stereo not drawn) showed a melting point of 112 to 113 °C.
For `Cc1cc(O)c(C(=O)CCC(F)(F)F)c(=O)o1`, the melting point was 104 °C.
`CCOC(=O)c1cn(C2CC2)c2c(F)c(N3CC(O)C3)c(F)cc2c1=O` showed a melting point of 260 to 270 °C.
In the case of `CCCc1nc2c(N)nc3cc(OCCN4CCCC4)ccc3c2s1`, the melting point is reported as 124 to 127 °C.
In the case of `CCCCn1cc(C(=O)O)c(=O)c2cc(C)sc21`, the melting point is reported as 172 to 173 °C.
Molecule `CCN1CS(=C2SC(=S)N(Cc3ccccc3)C2=O)c2ccccc21` (stereo not drawn) has a melting point of 209 to 211 °C.
In the case of `CCC(C(=O)N(C)C)n1ccc(-c2ccccc2C)n1` (stereo not drawn), the melting point is reported as 48 to 51 °C.
`COC(=O)c1cc2cc(-c3ccc4ccc(Cl)cc4n3)ccc2o1` gave a melting point of 178 to 181 °C.
In the case of `Cc1c(C)c(N2CCN(c3ccn(C)n3)CC2)c(C)c2c1OC(C)(C)C2`, the melting point is reported as 147 to 149 °C.
Molecule `CCCCCCCCCCOc1ccc(CC(=O)OC)cc1` has a melting point of 42 to 44 °C.
Molecule `CC(=O)Nc1ccc(C(=O)c2c(N)sc3c2CCN(Cc2ccccc2)C3)cc1` has a melting point of 119 to 120 °C.
Molecule `Cc1nc(NCCSCc2nc[nH]c2C)[nH]c(=O)c1CCc1ccccc1` has a melting point of 222 to 224 °C.
`CCSc1cn(C)cc(-c2ccccc2)c1=O` gave a melting point of 94 to 95 °C.
Work on `COC(=O)C1=C(N)NC(C)=C([N+](=O)[O-])C1c1ccccc1OCCCCCN1CCN(c2ccccc2OC)CC1` (stereo not drawn) yielded a melting point of 167 °C.
`CC(=O)N1CCCC2(Cc3cc([N+](=O)[O-])ccc3O2)C1` (stereo not drawn) showed a melting point of 165 to 167 °C.
`CC1(C)COC(c2cc(F)c(F)c([Si](C)(C)C)c2F)=N1` showed a melting point of 71 to 72 °C.
Work on `O=C(Cn1nnnc1-c1ccsc1)OCCCCCO` yielded a melting point of 39 to 42 °C.
Molecule `COc1ccc(C2CCC(C(=O)O)CC2)c2c1OCO2` (stereo not drawn) has a melting point of 206 to 208 °C.
In the case of `COC(=O)c1ccc(CC#N)cc1S(=O)(=O)NC(C)(C)C`, the melting point is reported as 86 to 88 °C.
With `CC(=O)OCCN1CC(c2ccccc2)NC1=O` (stereo not drawn) the melting point was 88 to 90 °C.
With `Nc1ccccc1CNC(=O)C1Cc2ccccc2N1S(=O)(=O)c1ccc(-c2ccc(F)cc2Cl)cc1` (stereo not drawn) the melting point was 85 to 90 °C.
Molecule `CC(C)(C)OC(=O)N1CCNC(=O)C1Cc1ccc(OCc2ccccc2)cc1` (stereo not drawn) has a melting point of 145 to 147 °C.
`COc1cc(OC)c2c(=O)[nH]c(-c3cc(C)c(OCCO)c(C)c3)nc2n1` gave a melting point of 255 to 256 °C.
Work on `Nc1cc2c(Nc3ccc(Cl)c(Br)c3)ncnc2cn1` yielded a melting point of 271 to 274 °C.
Work on `CC(=O)OCC1OC(n2ccc3c(Br)cccc32)C(OC(C)=O)C(OC(C)=O)C1OC(C)=O` (stereo not drawn) yielded a melting point of 166 to 167 °C.
Work on `Cc1ccc(N2CN(C)CNC2=S)cc1` yielded a melting point of 176 to 178 °C.
`COc1ccc(S(=O)(=O)N(Cc2ccccc2)C(C(=O)NO)C(O)C(C)C)cc1` (stereo not drawn) gave a melting point of 81 to 82 °C.
Work on `CC(C)CCOc1ccc(Cl)c2c(=O)c3ccccc3sc12` yielded a melting point of 96 to 97 °C.
`CC1(C)OC[C@@H](CNc2c([N+](=O)[O-])cnc3cc(Br)ccc23)O1` showed a melting point of 136 to 137 °C.
For `CC1(N)CN(c2cc3c(cc2F)c(=O)c(C(=O)O)cn3-c2ccc(F)cc2F)C1`, the melting point was 210 to 216 °C.
`COc1ccc(C2=CCCS(=O)C2)cc1OC1CCCC1` (stereo not drawn) gave a melting point of 92 to 93 °C.
`CCOC(=O)c1cn2c(n1)c(OCC)nc1cc(Br)c(Br)cc12` gave a melting point of 247 to 249 °C.
With `O=C(OCCOc1ccccc1)c1cccc(NC(=O)C(CS)Cc2ccccc2)c1` (stereo not drawn) the melting point was 98 to 100 °C.
With `COc1ccc(Cc2nc(S)[nH]c2Cc2ccc(OC)cc2)cc1` the melting point was 270 °C.
Molecule `Cc1cc(=O)[nH]nc1-c1cccc(C(F)(F)F)c1` has a melting point of 224 to 227 °C.
In the case of `CCCCS(=O)(=O)Nc1ccc(Oc2cccc3c(C)ccnc23)cc1`, the melting point is reported as 208 to 209 °C.
With `COc1ccc(S(=O)(=O)CNC=O)cc1` the melting point was 105 to 107 °C.
Work on `CCCCCCCc1ccc([C@H]2CC[C@H](O)CC2)cc1` yielded a melting point of 80.2 to 82.5 °C.
`O=C(c1ccc(C(F)(F)F)cc1)c1cccc(O)c1` gave a melting point of 130 °C.
`CN(C)CCCC1CCCCN1C(=O)N1c2ccccc2C(=O)Nc2cccnc21` (stereo not drawn) showed a melting point of 142 to 144 °C.
In the case of `CCCCCCc1ccc(C#Cc2ccc(Br)cc2)cc1`, the melting point is reported as 67 °C.
Molecule `Cc1nn(-c2ccc(Cl)nn2)c(C)c1Br` has a melting point of 143 to 145 °C.
With `CCCc1cc(C=CC(=O)c2ccc(O)cc2)c(OC)cc1O` the melting point was 126 to 128 °C.
Work on `CCOc1ccc(-c2ccc(Cl)cc2)cc1C=O` yielded a melting point of 88 to 90 °C.
`COCCc1nc2c(N)nc3ccccc3c2n1CCCNC(=O)c1ccccc1` showed a melting point of 183 to 186 °C.
With `CC(C)c1nc(CCl)n(C)c1Sc1cc(Cl)cc(Cl)c1` the melting point was 110 to 111 °C.
`Cc1cc(C#CC(C)(C)O)cc(C)c1Oc1ccc([N+](=O)[O-])c(Nc2ccc(C#N)cc2)n1` showed a melting point of 114 to 116 °C.
`COc1ccc2oc3ccc([N+](=O)[O-])cc3c2c1C(=O)Nc1ccncc1` showed a melting point of 222 °C.
`COC(=O)C[C@H](O)C[C@H](O)CCc1c(-c2ccc(F)cc2)c(-c2ccccc2)c(C(=O)NCc2ccccc2)n1C(C)C` showed a melting point of 52 to 55 °C.
In the case of `CC(=O)SCc1ccccc1CCC(=O)Nc1cccc(C(=O)OCCBr)c1`, the melting point is reported as 85 to 88 °C.
For `COC(=O)[C@@H]1c2ccccc2C[C@@H]1O`, the melting point was 72.5 to 73.5 °C.
With `COc1cc(C(C)C)c2c(c1)S(=O)(=O)N(COc1cc(C#N)nn1-c1ccccc1)C2=O` the melting point was 114 to 116 °C.
Molecule `CC(=O)NCC1CN(Cc2ccc(F)cc2)CCO1` (stereo not drawn) has a melting point of 120 to 122 °C.
Molecule `C=CC1(CC(=O)O)CC(C)(C)CC(C)(C)C1` has a melting point of 92 to 94 °C.
`O=C(O)Cc1c(C(=O)c2ccc(Cl)cc2)[nH]c2ccccc12` showed a melting point of 221 to 224 °C.
With `Brc1ccc(-c2coc3c2ccc2ccccc23)cc1` the melting point was 125 to 130 °C.
Molecule `CSC(=S)N1CCN(Cc2ccccc2O)CC1` has a melting point of 147 °C.
`CCOC(=O)C(=Cc1ccc(N(C)C)cc1[N+](=O)[O-])C(=O)OCC` gave a melting point of 101 to 102 °C.
For `Cc1ccc(CN(C(=O)C2CC2)c2nc(C)no2)cc1`, the melting point was 49.5 to 50.5 °C.
Molecule `CNC(=O)OCC(F)(F)Cn1nc(C)c(-c2ccc3c(c2)NC(=O)CO3)c1-c1ccc(F)cc1` has a melting point of 112 °C.
In the case of `O=C1C(=Cc2cccc3ccccc23)CCc2cc(OCCn3ccnc3)ccc21`, the melting point is reported as 147 to 148 °C.
Work on `O=C(CCc1nc(CCl)no1)c1ccc(-c2ccccc2)cc1` yielded a melting point of 153 to 154 °C.
Work on `O=C(O)CC[C@@H](Cc1cn(Cc2ccccc2)c2ccccc12)NC(=O)CCCCCCc1ccccc1` yielded a melting point of 130 to 132 °C.
